From PubChem BioAssay AID2060616 (Molecular Pharmacology Branch, DTP, NCI, 2025)
“And” between values parts separate entries of the source, which are not always exact repeats. Equal values may be shown once.

System: 377384-186-R-J1-PDC complex spheroid viability
Test: Anticancer human tumor 377384-186-R-J1-PDC patient-derived pancreatic carcinoma cell line growth inhibition [CLK]
Settings: for viability, T/C: stronger effect = lower value
Outline: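 Patient-derived tumor cells grown as complex spheroids with HUVEC endothelial cells and mesenchymal stem cells, treated with drug combinations. Concentrations descend in half-log steps from near clinical Cmax, or from 10 microM if Cmax unknown.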

[1] = curve of first compound, second compound 0.0316 µM
[2] = curve of first compound, second compound 0.1 µM
[3] = curve of first compound, second compound 0.316 µM
[4] = curve of first compound, second compound 1 µM
[5] = curve of first compound, second compound 3.16 µM
[6] = curve of first compound, second compound 10 µM
[7] = second compound 0.0316 µM, first compound 0.0316 µM
[8] = second compound 0.0316 µM, first compound 0.1 µM
[9] = second compound 0.0316 µM, first compound 0.316 µM
[10] = second compound 0.0316 µM, first compound 1 µM
[11] = second compound 0.1 µM, first compound 0.0316 µM
[12] = second compound 0.1 µM, first compound 0.1 µM
[13] = second compound 0.1 µM, first compound 0.316 µM
[14] = second compound 0.1 µM, first compound 1 µM
[15] = second compound 0.316 µM, first compound 0.0316 µM
[16] = second compound 0.316 µM, first compound 0.1 µM
[17] = second compound 0.316 µM, first compound 0.316 µM
[18] = second compound 0.316 µM, first compound 1 µM
[19] = second compound 1 µM, first compound 0.0316 µM
[20] = second compound 1 µM, first compound 0.1 µM
[21] = second compound 1 µM, first compound 0.316 µM
[22] = second compound 1 µM, first compound 1 µM
[23] = second compound 3.16 µM, first compound 0.0316 µM
[24] = second compound 3.16 µM, first compound 0.1 µM
[25] = second compound 3.16 µM, first compound 0.316 µM
[26] = second compound 3.16 µM, first compound 1 µM
[27] = second compound 10 µM, first compound 0.0316 µM
[28] = second compound 10 µM, first compound 0.1 µM
[29] = second compound 10 µM, first compound 0.316 µM
[30] = second compound 10 µM, first compound 1 µM
[31] = second compound 0.0316 µM, first compound 3.16 µM
[32] = second compound 0.0316 µM, first compound 10 µM
[33] = second compound 0.1 µM, first compound 3.16 µM
[34] = second compound 0.1 µM, first compound 10 µM
[35] = second compound 0.316 µM, first compound 3.16 µM
[36] = second compound 0.316 µM, first compound 10 µM
[37] = second compound 1 µM, first compound 3.16 µM
[38] = second compound 1 µM, first compound 10 µM
[39] = second compound 3.16 µM, first compound 3.16 µM
[40] = second compound 3.16 µM, first compound 10 µM
[41] = second compound 10 µM, first compound 3.16 µM
[42] = second compound 10 µM, first compound 10 µM
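Further: spheroids exposed to agents for 7 days before reading.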
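Wherever viability, T/C is given: luminescence signal used as a stand-in for viable cells.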

## COc1c(OCCCN2CCOCC2)ccc2c3n(c(=NC(=O)c4cnc(N)nc4)nc12)CCN3 + CN1CCN(c2cc(C(=O)Nc3cc4cc(-c5cnn(C)c5)ccc4cn3)ccn2)CC1
[1]
  IC50: 41.8 nM
[2]
  IC50: 38.9 nM
[3]
  IC50: < 3.16 nM
[4]
  IC50: < 3.16 nM
[5]
  IC50: < 3.16 nM
[6]
  IC50: < 3.16 nM
Second compound 0.0316 µM, first compound 0.00316 µM
  viability, T/C: 103%
Second compound 0.0316 µM, first compound 0.01 µM
  viability, T/C: 72.8%
[7]
  viability, T/C: 55.2%
[8]
  viability, T/C: 37.8%
[9]
  viability, T/C: 24.9%
[10]
  viability, T/C: 15%
Second compound 0.1 µM, first compound 0.00316 µM
  viability, T/C: 89.9%
Second compound 0.1 µM, first compound 0.01 µM
  viability, T/C: 77.2%
[11]
  viability, T/C: 48%
[12]
  viability, T/C: 37.6%
[13]
  viability, T/C: 25.3%
[14]
  viability, T/C: 14.5%
Second compound 0.316 µM, first compound 0.00316 µM
  viability, T/C: 31.7%
Second compound 0.316 µM, first compound 0.01 µM
  viability, T/C: 22.1%
[15]
  viability, T/C: 18.7%
[16]
  viability, T/C: 16.6%
[17]
  viability, T/C: 14.2%
[18]
  viability, T/C: 11.9%
Second compound 1 µM, first compound 0.00316 µM
  viability, T/C: 2.68%
Second compound 1 µM, first compound 0.01 µM
  viability, T/C: 2.64%
[19]
  viability, T/C: 1.8%
[20]
  viability, T/C: 1.85%
[21]
  viability, T/C: 2.19%
[22]
  viability, T/C: 2.43%
Second compound 3.16 µM, first compound 0.00316 µM
  viability, T/C: 0.37%
Second compound 3.16 µM, first compound 0.01 µM
  viability, T/C: 0.47%
[23]
  viability, T/C: 0.92%
[24]
  viability, T/C: 0.45%
[25]
  viability, T/C: 0.44%
[26]
  viability, T/C: 1.06%
Second compound 10 µM, first compound 0.00316 µM
  viability, T/C: 0.5%
Second compound 10 µM, first compound 0.01 µM
  viability, T/C: 0.28%
[27]
  viability, T/C: 0.28%
[28]
  viability, T/C: 0.32%
[29]
  viability, T/C: 0.33%
[30]
  viability, T/C: 0.34%

## O=c1[nH]cc(F)c(=O)[nH]1 + CNC(=O)c1ccc(Nc2nc(OC3CCCC3)c3c(-c4ccc5nc(C)oc5c4)c[nH]c3n2)c(OC)c1
[1]
  IC50: 3650 nM
[2]
  IC50: 46.4 nM
[3]
  IC50: < 31.6 nM
[4]
  IC50: < 31.6 nM
[5]
  IC50: < 31.6 nM
[6]
  IC50: < 31.6 nM
[7]
  viability, T/C: 98%
[8]
  viability, T/C: 98.3%
[9]
  viability, T/C: 96%
[10]
  viability, T/C: 82.1%
[31]
  viability, T/C: 50.3%
[32]
  viability, T/C: 46.3%
[11]
  viability, T/C: 49.6%
[12]
  viability, T/C: 50.9%
[13]
  viability, T/C: 45.4%
[14]
  viability, T/C: 54.5%
[33]
  viability, T/C: 41.6%
[34]
  viability, T/C: 43.5%
[15]
  viability, T/C: 20.4%
[16]
  viability, T/C: 20.3%
[17]
  viability, T/C: 16.7%
[18]
  viability, T/C: 16.4%
[35]
  viability, T/C: 14.5%
[36]
  viability, T/C: 14%
[19]
  viability, T/C: 22%
[20]
  viability, T/C: 17.8%
[21]
  viability, T/C: 19.2%
[22]
  viability, T/C: 14.9%
[37]
  viability, T/C: 13.2%
[38]
  viability, T/C: 10.7%
[23]
  viability, T/C: 20.2%
[24]
  viability, T/C: 19.7%
[25]
  viability, T/C: 17.6%
[26]
  viability, T/C: 16.7%
[39]
  viability, T/C: 12.6%
[40]
  viability, T/C: 9.93%
[27]
  viability, T/C: 16.8%
[28]
  viability, T/C: 17.2%
[29]
  viability, T/C: 17.1%
[30]
  viability, T/C: 16%
[41]
  viability, T/C: 10.8%
[42]
  viability, T/C: 11.4%

## CC(=O)O[C@H]1C(=O)[C@@]2(C)[C@H]([C@H](OC(=O)c3ccccc3)[C@]3(O)C[C@H](OC(=O)[C@H](O)[C@@H](NC(=O)c4ccccc4)c4ccccc4)C(C)=C1C3(C)C)[C@]1(OC(C)=O)CO[C@@H]1C[C@@H]2O + CNC(=O)c1ccc(Nc2nc(OC3CCCC3)c3c(-c4ccc5nc(C)oc5c4)c[nH]c3n2)c(OC)c1
[1]
  IC50: < 31.6 nM
[2]
  IC50: < 31.6 nM
[3]
  IC50: < 31.6 nM
[4]
  IC50: < 31.6 nM
[5]
  IC50: < 31.6 nM
[6]
  IC50: < 31.6 nM
[7]
  viability, T/C: 11.1%
[8]
  viability, T/C: 9.78%
[9]
  viability, T/C: 11.1%
[10]
  viability, T/C: 10.2%
[31]
  viability, T/C: 12.7%
[32]
  viability, T/C: 20.1%
[11]
  viability, T/C: 14.4%
[12]
  viability, T/C: 16.9%
[13]
  viability, T/C: 20.5%
[14]
  viability, T/C: 21.8%
[33]
  viability, T/C: 28.9%
[34]
  viability, T/C: 35.2%
[15]
  viability, T/C: 20%
[16]
  viability, T/C: 21.2%
[17]
  viability, T/C: 29%
[18]
  viability, T/C: 36.6%
[35]
  viability, T/C: 42.3%
[36]
  viability, T/C: 47.3%
[19]
  viability, T/C: 21.7%
[20]
  viability, T/C: 22.3%
[21]
  viability, T/C: 29.6%
[22]
  viability, T/C: 37.9%
[37]
  viability, T/C: 40.5%
[38]
  viability, T/C: 49.1%
[23]
  viability, T/C: 18%
[24]
  viability, T/C: 21.7%
[25]
  viability, T/C: 27.5%
[26]
  viability, T/C: 34.4%
[39]
  viability, T/C: 38.6%
[40]
  viability, T/C: 45.5%
[27]
  viability, T/C: 17.7%
[28]
  viability, T/C: 22.3%
[29]
  viability, T/C: 29.7%
[30]
  viability, T/C: 37.2%
[41]
  viability, T/C: 38.7%
[42]
  viability, T/C: 42.8%

## O=c1[nH]cc(F)c(=O)[nH]1
Compound 0.0316 µM
  viability, T/C: 88.5% and 94.6%
Compound 0.1 µM
  viability, T/C: 82.7% and 110%
Compound 0.316 µM
  viability, T/C: 93.3% and 88.5%
Compound 1 µM
  viability, T/C: 68.9% and 68.5%
Compound 3.16 µM
  viability, T/C: 50.5% and 51.5%
Compound 10 µM
  viability, T/C: 45.1% and 41.7%
Curve of compound
  IC50: 2810 nM and 3050 nM
